Test results reported in PMC8472790, “Dual Emissive Ir(III) Complexes for Photodynamic Therapy and Bioimaging” (Pharmaceutics, 2021).
Like-named read-outs stand apart in the source and are kept apart here.

Legend:
[1] = Distribution coefficient n-octanol/water, shake-flask method; assay type: physicochemical; details: pH = 7.4, n-octanol/phosphate buffered saline, 298 K
Protocol: The n-octanol-water coefficient of complexes 1–4 and L1 and L2 were determined using a shake-flask method. A mixture of buffered-saline distilled water (100 mL, phosphate buffer [PO4^3−] = 10 mM, [NaCl] = 0.15 M, pH 7.4) and n-octanol (100 mL) was shaken for 72 h to allow saturation of both phases. Approximately 0.5 mg of the complexes or ligands werw dissolved in 5 mL of the aqueous phase and 5 mL of the organic phase were added, mixing for 10 min. The resulting emulsion was centrifuged to separate the phases. The concentration of the compounds in each phase was determined using UV absorbance spectroscopy at 298 K. logP7.4 was defined as log{[compound(organic phase)]/[compound(aqueous phase)]}.

A549 cells [2] = experiment: Cell morphology by phase contrast (inverted) microscopy; assay type: cell-based, Human; details: A549, 10 to 20 µM, 20 h
Protocol: Alterations in cell morphology and behavior as a consequence of the exposition to ligands and complexes were analyzed using an inverted microscope (Figure 5). […] Oppositely, complexes 1–4 were able to modify cell aspect. All of them triggered cytoplasmic vesicle formation, which was more remarkable for compounds 3 and 4, containing the bzq orthometallated ligand. Moreover, even though cell division still took place in the presence of all of them, it became patently clear that they have cytotoxic properties, being more evident for complexes 1 and 2.
Figure 5 Phase contrast microscopy images of A549 cells treated with L1, L2 and 1–4 at concentrations between 10 and 20 µM for 20 h. Black arrows point to apoptotic cells. Little black triangles show examples of cells containing cytoplasmic vesicles.

[3] = tested on: A549 lung carcinoma cells; experiment: MTT-reduction cell viability assay, dark and after LED irradiation; assay type: cell-based, Human; details: for PI (Phototoxic index), 405 nm: IC50 dark / IC50 at 405 nm; for PI (Phototoxic index), 470 nm: IC50 dark / IC50 at 470 nm
Protocol: Human lung carcinoma A549 cell line (from ATCC, Manassas, VA, USA) was cultured in high glucose Dubecco’s Modified Eagle’s Medium (DMEM) supplemented with 5% fetal bovine serum (FBS) as well as L-glutamine and penicillin/streptomycin at 37 °C in a humidified atmosphere of 95% air and 5% CO2.
Cell metabolic activity was analyzed by an MTT-reduction assay to assess the A549 cell sensitivity to the complexes. Thus, 10^5 cells(A549)/mL were seeded in flat-bottom 96-well plates (100 µL/well) in complete medium and allowed to attach for 24 h. A stock solution of the complexes was prepared in DMSO 0.1 M. Subsequent dilutions of the different stock solutions from the complexes using DMEM were prepared. 100 µL/well were added to the cells, in concentrations ranging from 0.2 to 50 µM. each concentration was performed by quadruplicate. After 5 h of incubation with the complexes, duplicates of each concentration were irradiated with an LED lamp upon 405 and 470 nm with a light dose of 6.5 and 15.1 J/m^2, respectively, for 10 min. Before irradiation, culture medium was replaced with fresh medium in order to avoid interference with non-internalized complexes. Cells were cultured for a further 19 h. 10 µL of MTT (5 mg ml^−^1 in PBS) were added to each well and then further 2 h incubation was allowed at 37 °C. Finally, after removing the culture medium, DMSO (100 µL/well) was added to dissolve the formazan crystals. Multiskan EX 96-well multiscanner autoreader (Thermo Fisher Scientific, Waltham, MA, USA) was used to determine the optical density at 550 nm and IC50 was calculated. Each experiment was repeated at least three independent analyses.

A549 cells [4] = experiment: Cytotoxicity assay by flow cytometry, Annexin V-DY634 / 7-AAD double staining; assay type: cell-based, Human; details: A549, dark and irradiation at 470 nm
Protocol: Necrotic and apoptotic cell death was determined by measuring cell membrane permeabilization and phosphatidylserine exposure on cell surface in A549 cells, respectively. 10^5 cells/well were seeded in flat-bottom, 12-well plates (1 mL/well) in complete medium and left 12 h to attach to the plates. […] After 19 h, cells were trypsinized and thereafter resuspended in 50 μL of a mixture of DY634-conjugated Annexin V, Annexin-binding buffer (ABB; 140 mM NaCl, 2.5 mM CaCl2, 10 mM HEPES/NaOH pH 7.4) and 7-amino-actinomycin D (7-AAD). After incubation for further 15 min at rt in dark, cells were diluted to 300 μL with ABB. A total of 10,000 cells were acquired on a FACSCalibur^TM flow cytometer (BD Biosciences, San Jose, CA, USA) and cell death analysis was performed using Flowjo 7.6.1 (Becton Dickinson (BD), Franklin Lakes, NJ, USA), CellQuest Pro (BD Biosciences) and GraphPad Prism 8 (GraphPad Software, San Diego, CA, USA) softwares.

A549 cells [5] = experiment: Cell cycle analysis, propidium iodide flow cytometry; assay type: cell-based, Human; details: for Cell distribution G0-G1 / Cell distribution G2-M / Cell distribution S: 5 h + 19 h
Protocol: 4 × 105. […] Thereupon, cell culture was changed, and half of the experimental points were irradiated at 470 nm. After 19 h in culture, cells were trypsinized, washed twice with PBS, fixed with cold 70% ethanol (v/v) by vortexing and stored at −20 °C for at least 24 h. After that, cells were wash with cold PBS and stained with 500 μL of a solution of propidium iodide (PI) and RNase (Immunostep, Salamanca, Spain) for 20 min at rt in the dark. Finally, a total of 10,000 cells were acquired on a FACSCalibur^TM flow cytometer and data were analyzed using the aforementioned softwares.

A549 cells [6] = experiment: ROS production measurement with dihydroethidium (DHE) by flow cytometry; assay type: cell-based, Human; details: A549, IC50 to ¼ IC50, dark and irradiation at 470 nm for 10 min
Protocol: Cells were incubated with the complex for 5 h and subsequently half of the experimental points were irradiated at 470 nm after replacing culture medium. Upon 19 h, cells were trypsinized, resuspended in 100 μL of a mixture of PBS and 2 μM of the dihydroethidium (DHE) probe, incubated at 37 °C in the dark for 15 min and diluted to 300 μL with PBS. Lastly, a total of 10,000 events were acquired on a FACSCalibur^TM flow cytometer and data were analyzed using the aforementioned softwares

[7] = Homo sapiens, light or radiation study, 24 h incubation, no irradiation, read-out: IC50 (DARK)
[8] = A549, irradiation at 470 nm, 0.0975 μM (25% IC50)
[9] = 5 h incubation, irradiation 10 min at 405 nm (6.5 J/m^2), further 19 h, read-out: IC50(λexc 405 nm)
[10] = 5 h incubation, irradiation 10 min at 470 nm (15.1 J/m^2), further 19 h, read-out: IC50(λexc 470 nm)
[11] = 24 h incubation, no irradiation, read-out: IC50 (DARK)

Molecule	logP [1]	Alterations in cell morphology (A549 cells [2])	IC50 [3, 7]	logP(Oct/W) [1]	IC50 [3, 9]	IC50 [3, 10]	IC50 [3, 11]	PI (Phototoxic index), 405 nm [3]	PI (Phototoxic index), 470 nm [3]	further results
c1ccc(N(c2ccccn2)c2c3ccccc3cc3ccccc23)nc1 [Complex L1]	1.2	apoptotic or necrotic cells were not detected	> 50 µM							
c1ccc(N(c2ccccn2)c2c3ccccc3nc3ccccc23)nc1 [Complex L2]	0.59	apoptotic or necrotic cells were not detected	> 50 µM							
[Ir(bzq)2(dpa-acr)]^+ [Complex 4]				1.24	> 5 µM	0.39 ± 0.09 µM	43.38 ± 0.14 µM			Cell death pathway (A549 cells [4]): triggers the apoptotic pathway; Cell distribution G0-G1 (A549 cells [5]; A549, dark, 10.9 μM (25% IC50)): 72.4%; Cell distribution G2-M (A549 cells [5]; A549, dark, 10.9 μM (25% IC50)): 13.5%; Cell distribution S (A549 cells [5]; A549, dark, 10.9 μM (25% IC50)): 14.1%; Cell distribution G0-G1 (A549 cells [5]; [8]): 73.7%; Cell distribution G2-M (A549 cells [5]; [8]): 14.0%; Cell distribution S (A549 cells [5]; [8]): 12.3%; Cell cycle arrest (A549 cells [5]; A549, ¼ IC50, dark and irradiation at 470 nm): not capable of stopping the cell cycle at any of its phases; ROS generation (DHE) (A549 cells [6]): concentration-dependent ROS generation
[Cl-].c1ccc(N(c2ccccn2)c2c3ccccc3cc3ccccc23)nc1.c1cnc2c(c1)ccc1ccc[c]([Ir+][c]3cccc4ccc5cccnc5c34)c12 [Complex 3]				1.73	1.35 ± 0.08 µM	0.4 ± 0.08 µM	18.9 ± 0.12 µM	14.0	47.2	
[Cl-].c1ccc(-c2cccc[c]2[Ir+][c]2ccccc2-c2ccccn2)nc1.c1ccc(N(c2ccccn2)c2c3ccccc3cc3ccccc23)nc1 [Complex 1]				0.75	1.16 ± 0.06 µM	0.18 ± 0.05 µM	13.6 ± 0.08 µM	11.7	75.5	
